According to ChEMBL document CHEMBL1909046, “DrugMatrix in vitro pharmacology data”:

Experiments:
[1] = DRUGMATRIX: Glutamate, NMDA, Phencyclidine radioligand binding (ligand: [3H] TCP); assay type: cell membranes, Rattus norvegicus, Wistar, Cerebral cortex, Membrane; conditions: Not Active = under 50% inhibition at 10 µM
[2] = target: T1, Alpha-1B adrenergic receptor (Rattus norvegicus, UniProt P15823); assay: DRUGMATRIX: Alpha-1B adrenergic receptor radioligand binding (ligand: prazosin); assay type: cell membranes, Wistar, Liver, Membrane; conditions: Not Active = under 50% inhibition at 10 µM
T1 sequence (P15823 whole entry): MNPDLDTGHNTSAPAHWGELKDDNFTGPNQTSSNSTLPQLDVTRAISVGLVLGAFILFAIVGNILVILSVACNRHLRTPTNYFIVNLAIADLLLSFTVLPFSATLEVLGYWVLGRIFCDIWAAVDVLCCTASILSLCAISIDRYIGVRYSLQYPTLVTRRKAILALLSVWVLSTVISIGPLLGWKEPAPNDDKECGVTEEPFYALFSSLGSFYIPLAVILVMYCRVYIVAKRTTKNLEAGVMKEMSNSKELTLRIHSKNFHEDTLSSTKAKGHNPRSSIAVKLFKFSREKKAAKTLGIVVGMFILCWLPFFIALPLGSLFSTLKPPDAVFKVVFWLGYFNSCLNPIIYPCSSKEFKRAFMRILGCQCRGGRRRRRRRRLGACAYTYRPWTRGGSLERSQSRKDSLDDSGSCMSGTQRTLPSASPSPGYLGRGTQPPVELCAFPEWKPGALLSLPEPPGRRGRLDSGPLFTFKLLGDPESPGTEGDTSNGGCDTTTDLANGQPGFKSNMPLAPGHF

[3] = target: 5-hydroxytryptamine receptor 4 (Cavia porcellus, UniProt O70528); assay type: cell membranes, Dunkin-Hartley, Striatum, Membrane; further: in other assays of this panel Not Active means under 50% inhibition at 10 µM
5-hydroxytryptamine receptor 4, sequence (O70528 whole entry): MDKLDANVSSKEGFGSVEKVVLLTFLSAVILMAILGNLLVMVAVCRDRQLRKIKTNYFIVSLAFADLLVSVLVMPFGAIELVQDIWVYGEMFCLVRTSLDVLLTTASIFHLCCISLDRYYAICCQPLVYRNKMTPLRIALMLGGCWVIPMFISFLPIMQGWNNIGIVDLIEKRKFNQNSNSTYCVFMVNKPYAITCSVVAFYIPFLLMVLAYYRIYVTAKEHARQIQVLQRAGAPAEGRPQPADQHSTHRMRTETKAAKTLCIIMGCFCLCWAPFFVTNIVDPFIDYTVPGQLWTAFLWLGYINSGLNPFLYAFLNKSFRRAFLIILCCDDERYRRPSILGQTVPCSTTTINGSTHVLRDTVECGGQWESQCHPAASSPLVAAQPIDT

[4] = target: T2, Polyunsaturated fatty acid lipoxygenase ALOX15 (Oryctolagus cuniculus, UniProt P12530); assay: biochemical; assay type: tissue-based, Reticulocytes; conditions: reticulocytes;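 further: inhibition of 15-lipoxygenase enzyme activity measured with linoleic acid as the substrate; in other assays of this panel Not Active means under 50% inhibition at 10 µM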
T2 sequence (P12530 whole entry): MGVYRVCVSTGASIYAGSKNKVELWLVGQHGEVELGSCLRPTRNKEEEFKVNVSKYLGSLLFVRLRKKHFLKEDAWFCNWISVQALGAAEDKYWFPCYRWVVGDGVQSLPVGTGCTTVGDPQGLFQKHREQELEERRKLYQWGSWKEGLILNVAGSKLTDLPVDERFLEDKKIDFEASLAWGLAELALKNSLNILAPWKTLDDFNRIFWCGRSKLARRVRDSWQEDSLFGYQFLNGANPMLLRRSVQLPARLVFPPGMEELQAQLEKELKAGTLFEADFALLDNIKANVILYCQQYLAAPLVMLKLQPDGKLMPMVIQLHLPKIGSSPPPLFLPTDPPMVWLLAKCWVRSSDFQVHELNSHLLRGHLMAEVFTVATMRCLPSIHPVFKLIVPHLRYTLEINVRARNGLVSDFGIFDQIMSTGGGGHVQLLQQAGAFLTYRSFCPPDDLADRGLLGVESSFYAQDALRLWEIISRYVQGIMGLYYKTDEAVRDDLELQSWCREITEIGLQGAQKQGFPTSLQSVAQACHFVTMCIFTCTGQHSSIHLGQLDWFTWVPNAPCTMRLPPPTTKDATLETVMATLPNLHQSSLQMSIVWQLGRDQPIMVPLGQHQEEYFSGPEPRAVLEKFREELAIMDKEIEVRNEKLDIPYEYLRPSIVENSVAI

Glycine receptor = Glycine receptor (Rattus norvegicus, UniProt P22771+P24524+P07727+P20781); assay type: cell membranes, Wistar, Spinal cord, Membrane; further: in other assays of this panel Not Active means under 50% inhibition at 10 µM
Adenosine receptor A2a = Adenosine receptor A2a (Homo sapiens, UniProt P29274); assay: DRUGMATRIX: Adenosine A2A radioligand binding (ligand: […]); assay type: cell membranes, HEK293, Membrane; conditions: hek293; Not Active = under 50% inhibition at 10 µM
Adenosine receptor A2a, sequence (P29274 whole entry): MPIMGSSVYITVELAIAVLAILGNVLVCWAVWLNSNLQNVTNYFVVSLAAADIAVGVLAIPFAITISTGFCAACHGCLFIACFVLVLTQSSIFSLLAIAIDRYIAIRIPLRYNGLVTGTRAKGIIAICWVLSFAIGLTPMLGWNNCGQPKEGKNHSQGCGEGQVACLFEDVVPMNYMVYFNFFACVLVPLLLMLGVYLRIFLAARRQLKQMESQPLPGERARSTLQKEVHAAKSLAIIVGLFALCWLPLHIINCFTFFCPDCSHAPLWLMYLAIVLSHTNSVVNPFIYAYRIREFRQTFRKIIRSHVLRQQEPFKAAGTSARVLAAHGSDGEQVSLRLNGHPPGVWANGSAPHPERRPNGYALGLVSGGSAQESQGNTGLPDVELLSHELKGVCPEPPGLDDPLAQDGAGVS

Neutrophil elastase = target: T3, Neutrophil elastase (Homo sapiens, UniProt P08246); assay type: tissue-based;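 further: inhibition of neutrophil elastase enzyme activity, measured with a p-nitroanilide-linked peptide substrate; in other assays of this panel Not Active means under 50% inhibition at 10 µM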
T3 sequence (P08246 whole entry): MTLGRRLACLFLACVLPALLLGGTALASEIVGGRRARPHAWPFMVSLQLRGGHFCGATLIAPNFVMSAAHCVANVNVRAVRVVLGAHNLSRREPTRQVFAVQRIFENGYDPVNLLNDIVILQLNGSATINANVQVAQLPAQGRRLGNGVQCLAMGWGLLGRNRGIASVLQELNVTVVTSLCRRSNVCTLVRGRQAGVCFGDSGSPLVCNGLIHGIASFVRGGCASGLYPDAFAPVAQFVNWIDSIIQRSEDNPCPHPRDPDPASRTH

Interstitial collagenase = target: T4, Interstitial collagenase (Homo sapiens, UniProt P03956); assay type: tissue-based, Rheumatoid synovial fibroblasts
T4 sequence (P03956 whole entry): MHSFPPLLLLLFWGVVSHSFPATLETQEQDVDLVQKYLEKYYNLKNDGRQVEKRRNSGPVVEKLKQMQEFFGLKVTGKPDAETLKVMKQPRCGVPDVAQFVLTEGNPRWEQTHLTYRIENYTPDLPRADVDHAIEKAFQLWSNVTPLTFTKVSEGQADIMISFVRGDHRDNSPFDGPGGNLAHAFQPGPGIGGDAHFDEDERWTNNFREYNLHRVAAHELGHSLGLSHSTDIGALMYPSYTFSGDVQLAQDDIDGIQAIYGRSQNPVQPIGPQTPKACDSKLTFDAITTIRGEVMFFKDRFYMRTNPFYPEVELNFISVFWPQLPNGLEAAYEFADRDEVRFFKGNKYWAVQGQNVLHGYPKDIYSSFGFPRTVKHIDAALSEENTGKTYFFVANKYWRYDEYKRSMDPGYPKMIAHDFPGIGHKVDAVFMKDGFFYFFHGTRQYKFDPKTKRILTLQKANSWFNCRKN

[5] = DRUGMATRIX: Interleukin IL-1 radioligand binding (ligand: [125I] interleukin 1beta); assay type: cell membranes, Membrane; conditions: nih3t3; Not Active = under 50% inhibition at 10 µM
[6] = DRUGMATRIX: Calcium Channel Type L, Dihydropyridine radioligand binding (ligand: [3H] Nitrendipine); assay type: cell membranes, Rattus norvegicus, Wistar, Cerebral cortex, Membrane; conditions: Not Active = under 50% inhibition at 10 µM
[7] = target: T5, Neuropeptide Y receptor type 1 (Homo sapiens, UniProt P25929); assay type: cell membranes, Membrane; conditions: sk-n-mc; further: in other assays of this panel Not Active means under 50% inhibition at 10 µM
T5 sequence (P25929 whole entry): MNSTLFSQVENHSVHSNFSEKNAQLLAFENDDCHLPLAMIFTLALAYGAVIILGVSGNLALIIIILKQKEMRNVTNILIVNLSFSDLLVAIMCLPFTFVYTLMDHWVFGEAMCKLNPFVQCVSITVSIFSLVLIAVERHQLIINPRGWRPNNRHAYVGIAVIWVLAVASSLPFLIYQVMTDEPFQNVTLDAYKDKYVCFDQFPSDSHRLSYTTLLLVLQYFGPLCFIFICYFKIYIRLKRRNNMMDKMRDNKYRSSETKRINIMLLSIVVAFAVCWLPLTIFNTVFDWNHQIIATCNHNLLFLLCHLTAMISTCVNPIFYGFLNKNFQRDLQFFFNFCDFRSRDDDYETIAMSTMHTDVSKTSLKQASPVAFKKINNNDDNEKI

CCOC(=O)[C@H](CCc1ccccc1)N[C@@H](C)C(=O)N1[C@H](C(=O)O)C[C@@H]2CCC[C@@H]21
Not Active: IC50 [1] | Ki [1] | IC50 [2] | IC50 [3] | IC50 [4] | IC50 (Glycine receptor) | IC50 (Adenosine receptor A2a) | IC50 (Neutrophil elastase) | IC50 (Interstitial collagenase) | IC50 [5] | Ki [5] | IC50 [6] | Ki [6] | IC50 [7]

CC(C)(C)NC(=O)[C@@H]1CN(Cc2cccnc2)CCN1C[C@@H](O)C[C@@H](Cc1ccccc1)C(=O)N[C@H]1c2ccccc2C[C@H]1O.O
Not Active: IC50 [1] | Ki [1] | IC50 [2] | IC50 [3] | IC50 [4] | IC50 (Glycine receptor) | IC50 (Adenosine receptor A2a) | IC50 (Neutrophil elastase) | IC50 (Interstitial collagenase) | IC50 [5] | Ki [5] | IC50 [6] | Ki [6] | IC50 [7]

CC1(C)[C@H]2CC[C@]1(C)C(=O)C2 [(-)-CAMPHOR]
Not Active: IC50 [1] | Ki [1] | IC50 [2] | IC50 [3] | IC50 [4] | IC50 (Glycine receptor) | IC50 (Adenosine receptor A2a) | IC50 (Neutrophil elastase) | IC50 (Interstitial collagenase) | IC50 [5] | Ki [5] | IC50 [6] | Ki [6] | IC50 [7]

COc1ccc(CCN2CCC(Nc3nc4ccccc4n3Cc3ccc(F)cc3)CC2)cc1 [ASTEMIZOLE]
Not Active: IC50 [3] | IC50 [4] | IC50 (Glycine receptor) | IC50 (Adenosine receptor A2a) | IC50 (Neutrophil elastase) | IC50 (Interstitial collagenase) | IC50 [7]

CN(C)CCCN1c2ccccc2CCc2ccc(Cl)cc21 [CLOMIPRAMINE]
Not Active: IC50 [3] | IC50 [4] | IC50 (Glycine receptor) | IC50 (Adenosine receptor A2a) | IC50 (Neutrophil elastase) | IC50 (Interstitial collagenase) | IC50 [7]

Clc1ccccc1C(c1ccccc1)(c1ccccc1)n1ccnc1 [CLOTRIMAZOLE]
Not Active: IC50 [3] | IC50 [4] | IC50 (Glycine receptor) | IC50 (Neutrophil elastase) | IC50 (Interstitial collagenase) | IC50 [7]

O=C(CCCN1CCC(O)(c2ccc(Cl)cc2)CC1)c1ccc(F)cc1 [HALOPERIDOL]
Not Active: IC50 [3] | IC50 [4] | IC50 (Glycine receptor) | IC50 (Adenosine receptor A2a) | IC50 (Neutrophil elastase) | IC50 (Interstitial collagenase) | IC50 [7]

CN1CCN2c3ccccc3Cc3ccccc3C2C1 (configuration not stated) [MIANSERIN]
Not Active: IC50 [3] | IC50 [4] | IC50 (Glycine receptor) | IC50 (Adenosine receptor A2a) | IC50 (Neutrophil elastase) | IC50 (Interstitial collagenase) | IC50 [7]

CC(C)(O)c1ccccc1CC[C@@H](SCC1(CC(=O)O)CC1)c1cccc(/C=C/c2ccc3ccc(Cl)cc3n2)c1 [MONTELUKAST]
Not Active: IC50 [3] | IC50 [4] | IC50 (Glycine receptor) | IC50 (Adenosine receptor A2a) | IC50 (Neutrophil elastase) | IC50 (Interstitial collagenase) | IC50 [7]

CSc1ccc2c(c1)N(CCC1CCCCN1C)c1ccccc1S2 (configuration not stated) [THIORIDAZINE]
Not Active: IC50 [3] | IC50 [4] | IC50 (Glycine receptor) | IC50 (Adenosine receptor A2a) | IC50 (Neutrophil elastase) | IC50 (Interstitial collagenase) | IC50 [7]

COc1cccc(C2(O)CCCCC2CN(C)C)c1 (configuration not stated) [TRAMADOL]
Not Active: IC50 [3] | IC50 [4] | IC50 (Glycine receptor) | IC50 (Adenosine receptor A2a) | IC50 (Neutrophil elastase) | IC50 (Interstitial collagenase) | IC50 [7]
